Experimental data published in patent publication US20250042879A1, “HETEROCYCLIC SUBSTITUTED 1,3,4-THIADIAZOLE AND PYRIDAZINE COMPOUNDS AND METHODS OF USING THE SAME” (Rgenta Therapeutics, Inc., priority 2021, published 2025).

The molecules below were run on HTT (assay: Mini-gene reporter assay-HTT (firefly luciferase, exon inclusion)). Settings: HTT Minigene, 5 μM; read-out: % Efficacy at 5 μM.
Assay type: cell-based
Source text: Mini-gene reporter constructs for each target site were constructed by first PCR amplifying the region-of-interest including the sequence of the alternatively skipped, sequences of the immediate upstream and downstream introns, and sequences of the immediate upstream and downstream exons. Then the 3′end of the amplified sequence was ligated to a firefly luciferase reporter gene and cloned into the pcDNA3.1 vector backbone. The final reporter construct was transiently transfected into HEK293 cells using Lipofectamine 3000 transfection reagents. Compounds that can induce the inclusion of the skipped exon in the reporter construct would increase the reporter firefly luciferase activity.
Test compounds were diluted in duplicates and dispensed into an assay plate. Transient mini-gene reporter cell line stock was resuspended and dispensed into the assay plate. Assay plates were then centrifuged and incubated. A luciferase reagent (e.g. ONE-Glo firefly luciferase reagent from Promega®) was added to the assay plate and the luminescence (RLU) signals recorded. EC50 values were determined by curve fitting in Levenberg-Marquardt algorithm.
With `COCC(C)N1CC(c2ccc(-c3ccc(-c4cc(F)c5nc(C)cn5c4)cc3O)nn2)C1` (stereo not shown) [Compound 84] the Emax at 5 µM was > 750%.
In the case of `Cc1cn2cc(-c3ccc(-c4ccc(C5CN(C6CCOCC6C)C5)nn4)c(O)c3)cc(F)c2n1` (stereo not shown) [Compound 85], the Emax at 5 µM is reported as > 750%.
`Cc1cn2cc(-c3ccc(-c4ccc(C5CN(CC6CCCOC6)C5)nn4)c(O)c3)cc(F)c2n1` (stereo not shown) [Compound 88] showed an Emax at 5 µM of 25 to 75%.
In the case of `Cc1cn2cc(-c3ccc(-c4ccc(C5CN(C6CCOC6)C5)nn4)c(O)c3)cc(F)c2n1` (stereo not shown) [Compound 89], the Emax at 5 µM is reported as > 750%.
For `Cc1cn2cc(-c3ccc(-c4ccc(C5CN(Cc6cnco6)C5)nn4)c(O)c3)cc(F)c2n1` [Compound 90], the Emax at 5 µM was 25 to 75%.
`CCCn1cc(CN2CC(c3ccc(-c4ccc(-c5cc(F)c6nc(C)cn6c5)cc4O)nn3)C2)cn1` [Compound 91] was tested, and the Emax at 5 µM was 25 to 75%.
For `CCC(COC)N1CC(c2ccc(-c3ccc(-c4cc(F)c5nc(C)cn5c4)cc3O)nn2)C1` (stereo not shown) [Compound 92], the Emax at 5 µM was > 750%.
With `Cc1cn2cc(-c3ccc(-c4ccc(C5CN(Cc6ccn(C)c6)C5)nn4)c(O)c3)cc(F)c2n1` [Compound 94] the Emax at 5 µM was 25 to 75%.
In the case of `Cc1cn2cc(-c3ccc(-c4ccc(C5CN(C(C)C6CCCO6)C5)nn4)c(O)c3)cc(F)c2n1` (stereo not shown) [Compound 95], the Emax at 5 µM is reported as > 750%.
In the case of `Cc1cn2cc(-c3ccc(-c4ccc(C5CN(Cc6cc(C)n(C)n6)C5)nn4)c(O)c3)cc(F)c2n1` [Compound 96], the Emax at 5 µM is reported as < 25%.
With `Cc1cn2cc(-c3ccc(-c4ccc(C5CN(C6COCCOC6)C5)nn4)c(O)c3)cc(F)c2n1` [Compound 97] the Emax at 5 µM was 25 to 75%.
`Cc1cn2cc(-c3ccc(-c4ccc(C5CN(Cc6cc[nH]c6)C5)nn4)c(O)c3)cc(F)c2n1` [Compound 98] was tested, and the Emax at 5 µM was > 750%.
`Cc1cn2cc(-c3ccc(-c4ccc(C5CN(C6CCCOCC6)C5)nn4)c(O)c3)cc(F)c2n1` (stereo not shown) [Compound 99] was tested, and the Emax at 5 µM was > 750%.
`Cc1cn2cc(-c3ccc(-c4ccc(C5CN(Cc6cn(C)cn6)C5)nn4)c(O)c3)cc(F)c2n1` [Compound 100] was tested, and the Emax at 5 µM was 25 to 75%.
`Cc1cn2cc(-c3ccc(-c4ccc(C5CN(Cc6cocn6)C5)nn4)c(O)c3)cc(F)c2n1` [Compound 101] gave an Emax at 5 µM of 25 to 75%.
With `Cc1cn2cc(-c3ccc(-c4ccc(C5CN(Cc6cnn(CCF)c6)C5)nn4)c(O)c3)cc(F)c2n1` [Compound 102] the Emax at 5 µM was > 750%.
`COC1CC(N2CC(c3ccc(-c4ccc(-c5cc(F)c6nc(C)cn6c5)cc4O)nn3)C2)C1` (stereo not shown) [Compound 103] gave an Emax at 5 µM of 25 to 75%.
Molecule `COCC(C)CN1CC(c2ccc(-c3ccc(-c4cc(F)c5nc(C)cn5c4)cc3O)nn2)C1` (stereo not shown) [Compound 104] has an Emax at 5 µM of 25 to 75%.
With `Cc1cn2cc(-c3ccc(-c4ccc(C5CN(CC6CC6C)C5)nn4)c(O)c3)cc(F)c2n1` (stereo not shown) [Compound 105] the Emax at 5 µM was > 750%.
`Cc1cn2cc(-c3ccc(-c4ccc(C5CN(C(C)Cc6cnn(C)c6)C5)nn4)c(O)c3)cc(F)c2n1` (stereo not shown) [Compound 106] was tested, and the Emax at 5 µM was > 750%.
Work on `Cc1cn2cc(-c3ccc(-c4ccc(C5CN(C(C)CCn6cccn6)C5)nn4)c(O)c3)cc(F)c2n1` (stereo not shown) [Compound 107] yielded an Emax at 5 µM of 25 to 75%.
With `Cc1cn2cc(-c3ccc(-c4ccc(C5CN(CC6(F)CC6)C5)nn4)c(O)c3)cc(F)c2n1` [Compound 108] the Emax at 5 µM was > 750%.
In the case of `Cc1cn2cc(-c3ccc(-c4ccc(C5CN(CC6CCSCC6)C5)nn4)c(O)c3)cc(F)c2n1` [Compound 109], the Emax at 5 µM is reported as > 750%.
With `Cc1cn2cc(-c3ccc(-c4ccc(C5CN(CC6(C)COC6)C5)nn4)c(O)c3)cc(F)c2n1` [Compound 110] the Emax at 5 µM was 25 to 75%.
`Cc1cn2cc(-c3ccc(-c4ccc(C5CN(CC6CCSC6)C5)nn4)c(O)c3)cc(F)c2n1` (stereo not shown) [Compound 111] was tested, and the Emax at 5 µM was > 750%.
In the case of `Cc1cn2cc(-c3ccc(-c4ccc(C5CN(CC6(C(F)F)CC6)C5)nn4)c(O)c3)cc(F)c2n1` [Compound 112], the Emax at 5 µM is reported as 25 to 75%.
In the case of `Cc1cn2cc(-c3ccc(-c4ccc(C5CN(C6CCOC7(CCC7)C6)C5)nn4)c(O)c3)cc(F)c2n1` (stereo not shown) [Compound 113], the Emax at 5 µM is reported as 25 to 75%.
For `Cc1cn2cc(-c3ccc(-c4ccc(C5CN(Cc6conc6C)C5)nn4)c(O)c3)cc(F)c2n1` [Compound 114], the Emax at 5 µM was < 25%.
In the case of `Cc1cn2cc(-c3ccc(-c4ccc(C5CN(C(C)Cc6cnccn6)C5)nn4)c(O)c3)cc(F)c2n1` (stereo not shown) [Compound 115], the Emax at 5 µM is reported as 25 to 75%.
`Cc1cn2cc(-c3ccc(-c4ccc(C5CN(Cc6cn(C(C)C)nn6)C5)nn4)c(O)c3)cc(F)c2n1` [Compound 116] gave an Emax at 5 µM of 25 to 75%.
With `Cc1cn2cc(-c3ccc(-c4ccc(C5CN(Cc6cnn(C)n6)C5)nn4)c(O)c3)cc(F)c2n1` [Compound 117] the Emax at 5 µM was 25 to 75%.
Molecule `Cc1cn2cc(-c3ccc(-c4ccc(C5CN(C6COC(C)C6)C5)nn4)c(O)c3)cc(F)c2n1` (stereo not shown) [Compound 119] has an Emax at 5 µM of 25 to 75%.
In the case of `Cc1cn2cc(-c3ccc(-c4ccc(C5CN(C(C)Cn6cncn6)C5)nn4)c(O)c3)cc(F)c2n1` (stereo not shown) [Compound 120], the Emax at 5 µM is reported as < 25%.
With `Cc1cn2cc(-c3ccc(-c4ccc(C5CN(Cc6ccc[nH]c6=O)C5)nn4)c(O)c3)cc(F)c2n1` [Compound 121] the Emax at 5 µM was 25 to 75%.
Molecule `Cc1cn2cc(-c3ccc(-c4ccc(C5CN(C(C)C6CCCCO6)C5)nn4)c(O)c3)cc(F)c2n1` (stereo not shown) [Compound 122] has an Emax at 5 µM of 25 to 75%.
`CCn1cc(CN2CC(c3ccc(-c4ccc(-c5cc(F)c6nc(C)cn6c5)cc4O)nn3)C2)nn1` [Compound 123] was tested, and the Emax at 5 µM was 25 to 75%.
For `Cc1cn2cc(-c3ccc(-c4ccc(C5CN(C6CC7(COC(C)C7)C6)C5)nn4)c(O)c3)cc(F)c2n1` (stereo not shown) [Compound 124], the Emax at 5 µM was 25 to 75%.
`CCn1cnc(CN2CC(c3ccc(-c4ccc(-c5cc(F)c6nc(C)cn6c5)cc4O)nn3)C2)c1` [Compound 125] gave an Emax at 5 µM of 25 to 75%.
With `COc1nn(C)cc1CN1CC(c2ccc(-c3ccc(-c4cc(F)c5nc(C)cn5c4)cc3O)nn2)C1` [Compound 126] the Emax at 5 µM was 25 to 75%.
For `COCn1nccc1CN1CC(c2ccc(-c3ccc(-c4cc(F)c5nc(C)cn5c4)cc3O)nn2)C1` [Compound 127], the Emax at 5 µM was < 25%.
`Cc1cn2cc(-c3ccc(-c4ccc(C5CN(C6CCc7cn[nH]c7C6)C5)nn4)c(O)c3)cc(F)c2n1` (stereo not shown) [Compound 128] showed an Emax at 5 µM of 25 to 75%.
In the case of `COc1cc(-c2ccc(-c3ccc(C4CN(Cc5ccccn5)C4)nn3)c(O)c2)cc2cn(C)nc12` [Compound 129], the Emax at 5 µM is reported as < 25%.
`COc1cc(-c2ccc(-c3ccc(C4CN(Cc5cccnc5)C4)nn3)c(O)c2)cc2cn(C)nc12` [Compound 130] gave an Emax at 5 µM of 25 to 75%.
For `COc1cc(-c2ccc(-c3ccc(C4CN(CC5CC=CCC5)C4)nn3)c(O)c2)cc2cn(C)nc12` (stereo not shown) [Compound 131], the Emax at 5 µM was > 750%.
With `CCN1CCC(N2CC(c3ccc(-c4ccc(-c5cc(OC)c6nn(C)cc6c5)cc4O)nn3)C2)CC1` [Compound 132] the Emax at 5 µM was < 25%.
For `COc1cc(-c2ccc(-c3ccc(C4CN(Cc5c(C)nn(C)c5C)C4)nn3)c(O)c2)cc2cn(C)nc12` [Compound 133], the Emax at 5 µM was < 25%.
With `COc1cc(-c2ccc(-c3ccc(C4CN(C5CCN(C6CC6)CC5)C4)nn3)c(O)c2)cc2cn(C)nc12` [Compound 134] the Emax at 5 µM was < 25%.
`COc1cc(-c2ccc(-c3ccc(C4CN(C5CCC(C)C5)C4)nn3)c(O)c2)cc2cn(C)nc12` (stereo not shown) [Compound 135] showed an Emax at 5 µM of 25 to 75%.
`COc1cc(-c2ccc(-c3ccc(C4CN(CC(C)(C)C)C4)nn3)c(O)c2)cc2cn(C)nc12` [Compound 136] was tested, and the Emax at 5 µM was > 750%.
For `COc1cc(-c2ccc(-c3ccc(C4CN(C5CCCC5)C4)nn3)c(O)c2)cc2cn(C)nc12` [Compound 137], the Emax at 5 µM was > 750%.
`COc1cc(-c2ccc(-c3ccc(C4CN(C(C)c5ccccn5)C4)nn3)c(O)c2)cc2cn(C)nc12` (stereo not shown) [Compound 138] was tested, and the Emax at 5 µM was 25 to 75%.
In the case of `COc1cc(-c2ccc(-c3ccc(C4CN(C5CCN(C6CC6)C5)C4)nn3)c(O)c2)cc2cn(C)nc12` (stereo not shown) [Compound 139], the Emax at 5 µM is reported as 25 to 75%.
For `COc1cc(-c2ccc(-c3ccc(C4CN(Cc5csnn5)C4)nn3)c(O)c2)cc2cn(C)nc12` [Compound 140], the Emax at 5 µM was < 25%.
`COc1cc(-c2ccc(-c3ccc(C4CN(Cc5cncs5)C4)nn3)c(O)c2)cc2cn(C)nc12` [Compound 141] was tested, and the Emax at 5 µM was 25 to 75%.
With `COc1cc(-c2ccc(-c3ccc(C4CN(C5CCCSC5)C4)nn3)c(O)c2)cc2cn(C)nc12` (stereo not shown) [Compound 142] the Emax at 5 µM was 25 to 75%.
For `COCC(C)N1CC(c2ccc(-c3ccc(-c4cc(OC)c5nn(C)cc5c4)cc3O)nn2)C1` (stereo not shown) [Compound 143], the Emax at 5 µM was > 750%.
For `COc1cc(-c2ccc(-c3ccc(C4CN(C5CCC(OC)CC5)C4)nn3)c(O)c2)cc2cn(C)nc12` (stereo not shown) [Compound 144], the Emax at 5 µM was > 750%.
`COc1cc(-c2ccc(-c3ccc(C4CN(C5CCOC(C)C5)C4)nn3)c(O)c2)cc2cn(C)nc12` (stereo not shown) [Compound 145] showed an Emax at 5 µM of 25 to 75%.
Work on `COc1cc(-c2ccc(-c3ccc(C4CN(C5CCOC(C)(C)C5)C4)nn3)c(O)c2)cc2cn(C)nc12` (stereo not shown) [Compound 146] yielded an Emax at 5 µM of 25 to 75%.
For `COc1cc(-c2ccc(-c3ccc(C4CN(CC5CCCOC5)C4)nn3)c(O)c2)cc2cn(C)nc12` (stereo not shown) [Compound 147], the Emax at 5 µM was > 750%.
With `COc1cc(-c2ccc(-c3ccc(C4CN(C(C)COC(C)C)C4)nn3)c(O)c2)cc2cn(C)nc12` (stereo not shown) [Compound 148] the Emax at 5 µM was 25 to 75%.
For `COc1cc(-c2ccc(-c3ccc(C4CN(Cc5nc(C)ccc5O)C4)nn3)c(O)c2)cc2cn(C)nc12` [Compound 149], the Emax at 5 µM was 25 to 75%.
`COc1cc(-c2ccc(-c3ccc(C4CN(Cc5cccnc5C)C4)nn3)c(O)c2)cc2cn(C)nc12` [Compound 150] gave an Emax at 5 µM of 25 to 75%.
With `COc1cc(-c2ccc(-c3ccc(C4CN(C(C)C5CCOC5)C4)nn3)c(O)c2)cc2cn(C)nc12` (stereo not shown) [Compound 151] the Emax at 5 µM was > 750%.
`CCn1ccc(CN2CC(c3ccc(-c4ccc(-c5cc(OC)c6nn(C)cc6c5)cc4O)nn3)C2)c1` [Compound 152] was tested, and the Emax at 5 µM was < 25%.
With `COc1ccc(CN2CC(c3ccc(-c4ccc(-c5cc(OC)c6nn(C)cc6c5)cc4O)nn3)C2)cn1` [Compound 153] the Emax at 5 µM was < 25%.
With `COc1cc(-c2ccc(-c3ccc(C4CN(C5CCCOCC5)C4)nn3)c(O)c2)cc2cn(C)nc12` (stereo not shown) [Compound 155] the Emax at 5 µM was > 750%.
